Results: US20130123215A1, “2,5-DIOXOIMIDAZOLIDIN-1-YL-3-PHENYLUREA DERIVATIVES AS FORMYL PEPTIDE RECEPTOR LIKE-1 (FPRL-1) RECEPTOR MODULATORS” (ALLERGAN, INC., priority 2011, published 2013)

Biological target: T1, FPRL-1 (Homo sapiens, UniProt P25090)
T1 construct: expressed in transfected cells; host or cells: CHO-Gα16 cells stably expressing FPRL1
T1 sequence (P25090 1-351): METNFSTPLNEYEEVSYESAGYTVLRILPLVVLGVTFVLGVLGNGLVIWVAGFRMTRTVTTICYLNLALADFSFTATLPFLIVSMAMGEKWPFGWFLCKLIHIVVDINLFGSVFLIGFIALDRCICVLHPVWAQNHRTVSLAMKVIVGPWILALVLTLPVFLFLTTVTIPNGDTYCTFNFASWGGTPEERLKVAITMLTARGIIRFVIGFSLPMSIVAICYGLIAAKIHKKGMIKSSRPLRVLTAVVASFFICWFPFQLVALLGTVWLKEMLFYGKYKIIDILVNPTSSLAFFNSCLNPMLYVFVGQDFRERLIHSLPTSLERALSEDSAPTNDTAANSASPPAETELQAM
Test: FPRL-1 Ga16-CHO compound-induced calcium activity (FLIPR Tetra)
Type: cell-based
Conditions: CHO-Gα16 cells stably expressing FPRL1; calcium activity on FLIPR Tetra; tested at 0.61 to 10,000 nM; read-out: FPRL-1 Ga16-CHO EC50
Protocol: HEK-Gα16 and CHO-Gα16 cells stably expressing FPRL1 were cultured in (F12, 10% FBS, 1% PSA, 400 μg/ml geneticin and 50 μg/ml hygromycin) and HEK-Gqi5 cells stable expressing FPR1 were cultured in (DMEM high glucose, 10% FBS, 1% PSA, 400 μg/ml geneticin and 50 μg/ml hygromycin). In general, the day before the experiment, 18,000 cells/well were plated in a 384-well clear bottom poly-d-lysine coated plate. The following day the screening compound-induced calcium activity was assayed on the FLIPR^Tetra. The drug plates were prepared in 384-well microplates using the EP3 and the MultiPROBE robotic liquid handling systems. Compounds were tested at concentrations ranging from 0.61 to 10,000 nM. Results are expressed as EC50 (nM) and efficacy values.

Going from `CCC1(CCc2ccccc2C(=O)OC)NC(=O)N(NC(=O)Nc2ccc(Br)cc2F)C1=O` (stereo not shown) [Compound 61, Methyl 2-(2-(1-(3-(4-bromo-2-fluorophenyl)ureido)-4-ethyl-2,5-dioxoimidazolidin-4-yl)ethyl)benzoate] to `CC1(CCc2ccccc2O)NC(=O)N(NC(=O)Nc2ccc(Br)cc2F)C1=O` (stereo not shown) [Compound 51, 1-(4-Bromo-2-fluorophenyl)-3-(4-(2-hydroxyphenethyl)-4-methyl-2,5-dioxoimidazolidin-1-yl)urea], the EC50 falls from 14.9 nM to 5.8 nM (2.6-fold).

Compared with `CC1(CCc2ccc(Cl)cc2)NC(=O)N(NC(=O)Nc2ccc(Br)cc2)C1=O` (stereo not shown) [Compound 33, 1-(4-Bromophenyl)-3-(4-(4-chlorophenethyl)-4-methyl-2,5-dioxoimidazolidin-1-yl)urea], `CC1(CCc2ccc(O)cc2)NC(=O)N(NC(=O)Nc2ccc(Br)cc2F)C1=O` (stereo not shown) [Compound 45, 1-(4-Bromo-2-fluorophenyl)-3-(4-(4-hydroxyphenethyl)-4-methyl-2,5-dioxoimidazolidin-1-yl)urea] is 38-fold lower in EC50: 333 nM for the first, 8.7 nM for the second.

`CC1(C)NC(=O)N(NC(=O)Nc2ccc(Br)cc2)C1=O` [Compound 12, 1-(4-Bromophenyl)-3-(4,4-dimethyl-2,5-dioxoimidazolidin-1-yl)urea] and `CC(C)C1(CC(=O)NC(C)(C)C(=O)O)NC(=O)N(NC(=O)Nc2ccc(Br)cc2)C1=O` (stereo not shown) [Compound 95, 2-(2-(1-(3-(4-Bromophenyl)ureido)-4-isopropyl-2,5-dioxoimidazolidin-4-yl)acetamido)-2-methylpropanoic acid] are within 1.5-fold of each other in EC50: 74.9 nM for the first, 109 nM for the second.

For `CC(C)C1(CC(=O)NCC(=O)OC(C)(C)C)NC(=O)N(NC(=O)Nc2ccc(Br)cc2)C1=O` (stereo not shown) [Compound 85, tert-Butyl 2-(2-(1-(3-(4-bromophenyl)ureido)-4-isopropyl-2,5-dioxoimidazolidin-4-yl)acetamido)acetate], the EC50 was 302 nM.
